What was measured:
[1] = molecular target: T1, recombinant feline FP receptor (Felis catus, UniProt A0ABI7XJ69); test: Total inositol phosphate accumulation, HEK-293 cells with recombinant feline FP receptor; assay type: cell-based, cat; conditions: read-out: E.C.50, total inositol phosphate accumulation
Description: Ten days after transfection, hygromycin B resistant clones were individually selected and transferred to a separate well on a 24 well plate. At confluence each clone was transferred to one well of a 6 well plate, and then expanded in a 10 cm dish. Cells were maintained under continuous hygromycin selection until use. The stable cat FP receptor transfectants were similarly prepared using […]. Again cells were grown to 50-60% confluency on 10 cm plates and the plasmid pCEP4, incorporating cDNA inserts for the feline FP receptor, was transfected using lipofectin. Hygromycin B selection was started 48 hr post-transfection. Eight days after transfection, hygromycin B resistant clones were selected and transferred to 24 well plates. Ca^2+ signaling studies on recombinant cat and human FP receptors were performed in an identical manner to that described for the CRL 1497 cell studies.
Receptor-mediated phosphoinositide (PI) hydrolysis was determined by measuring the accumulation of total inositol phosphates (IP) in cells preincubated with ^3H-myoinositol. Stable cell lines of HEK 293 cells expressing human or cat FP receptors were plated in 10 cm dishes (10^6 cells per dish in DMEM with 10% FBS). […] The eluate was mixed with 10 ml Aquasol scintillation fluid (Packard Instrument Co.) and total [^3H] inositol phosphates was determined by a liquid scintillation counter.

[2] = system: feline iris sphincter smooth muscle; test: Isolated cat iris sphincter smooth muscle contraction; conditions: for % Maximal contractile response mean χ ± SEM: reference contraction 10^−7 M PGF2α, n = 4
Description: (§1) Smooth muscle tension of isolated tissues was measured isometrically with force displacement transducers (Grass FT-03) and recorded on Grass Polygraphs (Models 7G and 79E). The organ baths contained Krebs solution maintained at 37° C. and gassed with 95% 02/5% CO2 to give a pH of 7.4. The Krebs solution had the following composition (mM): NaCl, 118.0; KCl, 4.7; KH2PO4, 1.2; CaCl2, 1.9; MgSO4, 1.18; NaHCO3, 25.0; glucose, 11.7; indomethacin, 0.001.
Adult domestic cats were sacrificed by intravenous overdose of sodium pentobarbital (Anthony, Arcadia, Calif.). The eyes were enucleated immediately and placed on ice. The iris sphincter muscle was mounted vertically under 50 to 100 mg tension in a jacketed 10 ml organ bath. A 60 min stabilization period was allowed before commencing each experiment. Activity was determined as contractile responses. Compounds were added cumulatively to the organ bath and at least 30 min was allowed for recovery, after complete wash-out, and return to baseline tension. […] No more than two compounds were tested in each tissue.

dog intraocular pressure = test: Intraocular pressure in conscious Beagle dogs; assay type: in vivo; conditions: 0.1% dose, topical
Description: Intraocular pressure studies in dogs involved pneumatonometry performed in conscious, Beagle dogs of both sexes (10-15 kg). The animals remained conscious throughout the study and were gently restrained by hand. Drugs were administered topically to one eye as a 25 μL volume drop, the other eye received 25 μL vehicle (0.1% polysorbate 80:10 mM TRIS) as a control. 0.1% proparacaine was used for corneal anesthesia during tonometry. Intraocular pressure was determined just before drug administration and at 2, 4 and 6 hr thereafter on each day of the 5 day study. Drug was administered immediately after the first IOP reading.

[3] = molecular target: T1, recombinant feline FP receptor; test: Radioligand binding competition vs 3H-17-phenyl PGF2α, recombinant feline FP receptor; set-up: species or system cat
Description: Plasma membrane preparations of HEK 293 cells stably transfected with the human or feline FP receptor were obtained as follows. Cells washed with TME buffer were scraped from the bottom of the flasks and homogenized for 30 sec using a Brinkman PT 10/35 polytron. TME buffer was added as necessary to achieve a 40 ml volume in the centrifuge tubes. […] The cell homogenate was centrifuged at 19,000 rpm for 20 min at 4-6° C. using a Beckman Ti-60 rotor. The pellet was then resuspended in TME buffer to provide a final protein concentration of 1 mg/ml, as determined by Biorad assay. […] Incubations were for 60 min at 25° C. and were terminated by the addition of 4 ml of ice-cold 50 mM TRIS-HCl followed by rapid filtration through Whatman GF/B filters and three additional 4 ml washes in a cell harvester (Brandel).

[4] = system: isolated rat aorta (TP receptor preparation); test: Isolated rat aorta contraction; conditions: 10^−6 and 10^−5 M
Description: as §1
Adult Sprague Dawley rats weighing 180-220 grams were anesthetized by CO2 inhalation and then decapitated and exsanguinated. The thoracic aorta was removed and cleaned of any adhering tissue. The lumen was flushed to remove any blood. The aorta was dissected into three small segments of 5-8 mm length. Each segment was mounted under 2 g of tension in a jacketed 10 ml organ bath with the aid of two wire hooks placed through the lumen of the vessel. This arrangement allowed for measurement of contraction forces developed by the circular smooth muscle. The tissues were allowed to equilibrate for 1 hour before compounds were added cumulatively to the organ baths. The response to 10^−7 M U-46619 (a thromboxane mimetic) was determined at the beginning and end of each experiment as a reference. A 30-45 minute recovery period was allowed after complete wash-out of drug. Only one test compound was examined in each tissue.

T1 sequence (A0ABI7XJ69 entry or part of it): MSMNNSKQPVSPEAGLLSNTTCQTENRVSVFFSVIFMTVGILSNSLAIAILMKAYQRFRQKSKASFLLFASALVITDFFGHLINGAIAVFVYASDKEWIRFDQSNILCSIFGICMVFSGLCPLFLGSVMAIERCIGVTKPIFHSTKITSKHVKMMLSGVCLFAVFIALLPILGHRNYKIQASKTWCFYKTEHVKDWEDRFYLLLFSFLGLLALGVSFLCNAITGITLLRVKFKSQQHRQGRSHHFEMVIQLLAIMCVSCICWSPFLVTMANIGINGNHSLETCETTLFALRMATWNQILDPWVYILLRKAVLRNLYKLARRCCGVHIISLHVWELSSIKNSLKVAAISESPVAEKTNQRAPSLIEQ

CCCCC[C@H](O)/C=C/[C@@H]1[C@@H](C/C=C\CCCC(=O)NCCO)[C@@H](O)C[C@H]1O [PGF2α 1-ethanolamide, (5Z,8α,9α,11α,13E,15S)-9,11,15-trihydroxy-N-(2-hydroxyethyL)prosta-5,13-dien-1-amide]
EC50 [1]: 0.524 µM
% Maximal contractile response mean χ ± SEM ([2]; 10^−5 M): 126.0 ± 3.6%
% Maximal contractile response mean χ ± SEM ([2]; 10^−6 M): 119.2 ± 6.0%
% Maximal contractile response mean χ ± SEM ([2]; 10^−7 M): 77 ± 5.5%
% Maximal contractile response mean χ ± SEM ([2]; 10^−8 M): 2.7 ± 1.7%
EC50 ([2]; Felis catus, isolated feline iris sphincter, read-out: effective concentration (E.C.)50, contraction of cat iris sphincter smooth muscle): 0.058 µM
threshold concentration ([2]; isolated feline iris sphincter contraction): ~10 nM
duration of intraocular pressure effect (dog intraocular pressure): persisted over the entire 24 hr experimental period
effect on intraocular pressure (dog intraocular pressure): marked and highly significant decrease
affinity for the feline receptor ([3]; radioligand binding): only weak affinity
IC50 ([3]; read-out: inhibitory concentration50 (I.C.50), radioligand binding): 0.882 µM
effect on the isolated rat aorta [4]: Residual activity occurred at high doses
